Each block holds one compound with its values, some of them ahead of it.
Legend:
[1] = tested on: IL-1β production in PMA-differentiated THP-1 cells; experiment: IL-1β production in PMA-differentiated THP-1 cells stimulated with gramicidin (hTHP-1 assay containing 2% fetal bovine serum); assay type: cell-based, human
Method in brief: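 THP-1 cells were differentiated with PMA 20 ng/ml for 16-18 h, then plated at 50,000 cells/well in RPMI with 2% FBS. They were preincubated 1 h with compound (100–0.0017 μM final, 0.37% DMSO), then stimulated with gramicidin 5 μM for 2 h. Supernatant IL-1β was measured by HTRF.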

[2] = tested on: IL-1β production in PMA-differentiated THP-1 cells; experiment: hTHP-1 assay containing 10% fetal bovine serum (IL-1β production, gramicidin-stimulated THP-1 cells); assay type: cell-based, human
Protocol: Activity key: <0.008 μM=“++++++”; ≥0.008 and <0.04 μM=“+++++”; ≥0.04 and <0.2 μM=“++++”; ≥0.2 and <1 μM=“+++”; ≥1 and <5 μM=“++”; ≥5 and <30 μM=“+”. ND=not determined.

[3] = read-out: hTHP-1 IC50 in 2% FBS, average IC50, hTHP-1 assay containing 2% fetal bovine serum
[4] = read-out: hTHP-1 IC50 in 10% FBS, average IC50
[5] = Homo sapiens, THP-1, read-out: hTHP-1 IC50 in 2% FBS, average IC50, hTHP-1 assay containing 2% fetal bovine serum
[6] = Homo sapiens, THP-1, read-out: hTHP-1 IC50 in 10% FBS, average IC50
[7] = Homo sapiens, THP-1, Table B2, 2% fetal bovine serum, class symbols, read-out: hTHP-1 IC50 (Average IC50 of compounds in hTHP-1 assay)
[8] = Homo sapiens, THP-1, Table B1, 2% fetal bovine serum, class symbols, read-out: hTHP-1 IC50 (Average IC50 of compounds in hTHP-1 assay)

IC50 [1, 3]: 200 to 1000 nM | IC50 [2, 4]: 40 to 200 nM
Compound: CC(C)c1cc2c(c(C(C)C)c1CC(=O)N=S(N)(=O)c1nn(CCO)cc1F)OC(F)(F)O2 (racemic) [Example 405, (R) and (S)—N-(amino(4-fluoro-1-(2-hydroxyethyl)-1H-pyrazol-3-yl)(oxo)-λ^6-sulfaneylidene)-2-(2,2-difluoro-4,6-diisopropylbenzo[d][1,3]dioxol-5-yl)acetamide]

IC50 [1, 3]: 5000 to 30000 nM | IC50 [2, 4]: 1000 to 5000 nM
Compound: CC(C)c1cc2c(c(C(C)C)c1CC(=O)N=S(N)(=O)c1nn(CCO)cc1F)OC(F)(F)O2 (racemic) [Example 406, (R) and (S)—N-(amino(4-fluoro-1-(2-hydroxyethyl)-1H-pyrazol-3-yl)(oxo)-λ^6-sulfaneylidene)-2-(2,2-difluoro-4,6-diisopropylbenzo[d][1,3]dioxol-5-yl)acetamide]

IC50 [1, 3]: 5000 to 30000 nM | IC50 [2, 4]: 5000 to 30000 nM
Compound: CC(C)c1c(CC(=O)N=S(N)(=O)c2sc(C(C)(C)O)cc2F)c2c(c3c1OC(F)(F)O3)CCC2 (racemic) [Example 407, (R) and (S)—N-(amino(3-fluoro-5-(2-hydroxypropan-2-yl)thiophen-2-yl)(oxo)-λ^6-sulfaneylidene)-2-(2,2-difluoro-4-isopropyl-7,8-dihydro-6H-indeno[4,5-d][1,3]dioxol-5-yl)acetamide]

IC50 [1, 3]: 200 to 1000 nM | IC50 [2, 4]: 200 to 1000 nM
Compound: CC(C)c1c(CC(=O)N=S(N)(=O)c2sc(C(C)(C)O)cc2F)c2c(c3c1OC(F)(F)O3)CCC2 (racemic) [Example 408, (R) and (S)—N-(amino(3-fluoro-5-(2-hydroxypropan-2-yl)thiophen-2-yl)(oxo)-λ^6-sulfaneylidene)-2-(2,2-difluoro-4-isopropyl-7,8-dihydro-6H-indeno[4,5-d][1,3]dioxol-5-yl)acetamide]

IC50 [1, 5]: 200 to 1000 nM | IC50 [2, 6]: 200 to 1000 nM
Compound: CC(C)c1c2c(c3c(c1CC(=O)N=S(N)(=O)c1sc(C(C)(C)O)cc1F)CCC3)COC2 (single isomer, unassigned) [Example 411, (R) or (S)-N-(amino(3-fluoro-5-(2-hydroxypropan-2-yl)thiophen-2-yl)(oxo)-λ^6-sulfaneylidene)-2-(4-isopropyl-3,6,7,8-tetrahydro-1H-indeno[4,5-c]furan-5-yl)acetamide]

IC50 ([1]; Homo sapiens, THP-1, read-out: hTHP-1 IC50 in 2% FBS, average IC50, hTHP-1 assay containing 2% fetal bovine serum, given as numeric bound): > 30000 nM | IC50 ([2]; Homo sapiens, THP-1, read-out: hTHP-1 IC50 in 10% FBS, average IC50, given as numeric bound): > 30000 nM
Compound: CC(C)c1c2c(c3c(c1CC(=O)N=S(N)(=O)c1sc(C(C)(C)O)cc1F)CCC3)COC2 (single isomer, unassigned) [Example 412, (S) or (R)-N-(amino(3-fluoro-5-(2-hydroxypropan-2-yl)thiophen-2-yl)(oxo)-λ^6-sulfaneylidene)-2-(4-isopropyl-3,6,7,8-tetrahydro-1H-indeno[4,5-c]furan-5-yl)acetamide]

IC50 [2, 4]: 5000 to 30000 nM
Compound: CNCc1ccc(S(N)(=O)=NC(=O)Cc2c(-c3ccccc3)cc(F)cc2C(C)C)cc1 (single isomer, unassigned) [Example 413, (S) or (R)-N-(amino(4-((methylamino)methyl)phenyl) (oxo)-λ^6-sulfaneylidene)-2-(5-fluoro-3-isopropyl-[1,1′-biphenyl]-2-yl)acetamide]

IC50 [2, 4]: 200 to 1000 nM
Compound: CNCc1ccc(S(N)(=O)=NC(=O)Cc2c(-c3ccccc3)cc(F)cc2C(C)C)cc1 (single isomer, unassigned) [Example 414, (R) or (S)-N-(amino(4-((methylamino)methyl)phenyl) (oxo)-λ^6-sulfaneylidene)-2-(5-fluoro-3-isopropyl-[1,1′-biphenyl]-2-yl)acetamide]

IC50 [2, 4]: 40 to 200 nM
Compound: CC(C)c1cc2c(c(C(C)C)c1CC(=O)N=S(N)(=O)c1nn(C[C@@H](C)O)cc1F)OC(F)(F)O2 (single isomer, unassigned) [Example 415, (R) or (S)-N-(amino(4-fluoro-1-((R)-2-hydroxypropyl)-1H-pyrazol-3-yl)(oxo)-λ^6-sulfaneylidene)-2-(2,2-difluoro-4,6-diisopropylbenzo[d][1,3]dioxol-5-yl)acetamide]

IC50 [2, 4]: 5000 to 30000 nM
Compound: CC(C)c1cc2c(c(C(C)C)c1CC(=O)N=S(N)(=O)c1nn(C[C@@H](C)O)cc1F)OC(F)(F)O2 (single isomer, unassigned) [Example 416, (S) or (R)-N-(amino(4-fluoro-1-((R)-2-hydroxypropyl)-1H-pyrazol-3-yl)(oxo)-λ^6-sulfaneylidene)-2-(2,2-difluoro-4,6-diisopropylbenzo[d][1,3]dioxol-5-yl)acetamide]

IC50 [1, 5]: 1000 to 5000 nM | IC50 [2, 6]: 200 to 1000 nM
Compound: CC(C)c1cccc(C(C)C)c1CC(=O)N=S(N)(=O)c1ccc(CCNC(=O)CCCc2ccccc2)cc1 (centres unmarked) [Compound 409]

IC50 [1, 7]: 1000 to 5000 nM
Compound: CCn1cc(F)c(S(N)(=O)=NC(=O)Cc2c(C(C)C)cc3c(c2C(C)C)COC3)n1 (centres unmarked) [Example 393, N-(amino(1-ethyl-4-fluoro-1H-pyrazol-3-yl)(oxo)-λ^6-sulfaneylidene)-2-(4,6-diisopropyl-1,3-dihydroisobenzofuran-5-yl)acetamide]

IC50 [1, 7]: 200 to 1000 nM
Compound: CCn1cc(F)c(S(N)(=O)=NC(=O)Cc2c(C(C)C)cc3c(c2C(C)C)OC(F)(F)O3)n1 (centres unmarked) [Example 394, N-(amino(1-ethyl-4-fluoro-1H-pyrazol-3-yl)(oxo)-λ^6-sulfaneylidene)-2-(2,2-difluoro-4,6-diisopropylbenzo[d][1,3]dioxol-5-yl)acetamide]

IC50 [1, 7]: 200 to 1000 nM
Compound: CC(C)c1c2c(c3c(c1CC(=O)N=S(N)(=O)c1sc(C(C)(C)O)cc1F)CCC3)COC2 (centres unmarked) [Example 395, N-(Amino(3-fluoro-5-(2-hydroxypropan-2-yl)thiophen-2-yl) (oxo)-λ^6-sulfaneylidene)-2-(4-isopropyl-3,6,7,8-tetrahydro-1H-indeno[4,5-c]furan-5-yl)acetamide]

IC50 [1, 5]: 5000 to 30000 nM
Compound: Cc1cc(C(F)(F)F)cc(O)c1CC(=O)N=S(N)(=O)c1ccccc1 (centres unmarked) [Example 404, N-(amino(oxo)(phenyl)-λ^6-sulfaneylidene)-2-(2-hydroxy-6-methyl-4-(trifluoromethyl)phenyl)acetamide]

IC50 [1, 8]: 200 to 1000 nM
Compound: CC(C)c1ccc(F)c(C(C)C)c1CC(=O)N=[S@@](N)(=O)c1cc(C(C)(C)O)cs1 [compound 88, (R)-N-(amino(4-(2-hydroxypropan-2-yl)thiophen-2-yl)(oxo)-λ^6-sulfanylidene)-2-(3-fluoro-2,6-diisopropylphenyl)acetamide]

IC50 [1, 8]: 200 to 1000 nM
Compound: CC(C)c1nc(-c2cccc(C(F)(F)F)c2)c(F)c(C(C)C)c1CC(=O)N=[S@@](N)(=O)c1cnc(C(C)(C)O)s1 [compound 89, (R)-N-(amino(2-(2-hydroxypropan-2-yl)thiazol-5-yl)(oxo)-λ^6-sulfanylidene)-2-(5-fluoro-2,4-diisopropyl-6-(3-(trifluoromethyl)phenyl)pyridin-3-yl)acetamide]

IC50 ([1]; Homo sapiens, THP-1, Table B2, 2% fetal bovine serum, cells printed as numeric bound, read-out: hTHP-1 IC50 (Average IC50 of compounds in hTHP-1 assay)): > 30000 nM
Compound: CC(C)c1cc(C#N)c(F)c(C(C)C)c1CC(=O)N=S(=O)(NC(N)=O)c1cnc([C@](C)(O)CO)s1 (some centres unmarked) [compound 355]

IC50 [1, 7]: 1000 to 5000 nM
Compound: CC(C)c1cc(C#N)c(F)c(C(C)C)c1CC(=O)N=S(N)(=O)c1cnc(C(O)CO)s1 (centres unmarked) [compound 382]
